Measured values as given in patent US9486546B2, “Methods and compositions for radiohalogen protein labeling” (Genentech, Inc., priority 2012, dated 2016).

Assay: Water solubility of labeling precursor
Type: physicochemical
Settings: aqueous 0.1% acetic acid
Source text: The radiochemical strategy shown on FIG. 3 uses the mild, water soluble oxidant, N-chlorosuccinimide, to achieve iodination on the hydroxyphenyl group of 4. […] Even though much greater radiochemical yield was possible by increasing the ratio of 4 to Na^125I, the highest possible specific activity of the radiolabeled intermediate 5 and higher conjugation yields was facilitated by avoiding saturation of available reduced thiols. The intermediate 5 was easily purified from free iodide and oxidant using reverse-phase solid-phase extraction cartridges. Acid deprotection yielded the triacid 6, with completeness of reaction monitored by reverse-phase radio-HPLC (FIG. 3). This 4-hydroxy-3-iodophenyl derivative of DOTA, 6, was designated [^125I] HIP-DOTA. After exhaustive removal of acid by repeated evaporation of toluene, the thiol-containing antibody could be introduced for thiol-maleimide coupling. Remaining free thiols in the radioimmunoconjugate were capped with iodoacetic acid to avoid dimerization or formation of adducts with thiol containing plasma or endogenous proteins. All radioimmunoconjugates were analyzed for purity by size-exclusion HPLC and compared to the profile of unlabeled antibodies, such as trastuzumab.

Water solubility: sufficiently water soluble
Structure (SMILES): CC(C)(C)OC(=O)CN1CCN(CC(=O)NCCN(CC(=O)NCC(=O)NCCN2C(=O)C=CC2=O)C(=O)Cc2ccc(O)cc2)CCN(CC(=O)OC(C)(C)C)CCN(CC(=O)OC(C)(C)C)CC1 [compound 4, tri-tert-butyl 2,2′,2″-(10-(14-(2,5-dioxo-2,5-dihydro-1H-pyrrol-1-yl)-6-(2-(4-hydroxyphenyl)acetyl)-2,8,11-trioxo-3,6,9,12-tetraazatetradecyl)-1,4,7,10-tetraazacyclododecane-1,4,7-triyl)triacetate]
